Earlier results on one compound are cited in patent publication US20150313904A1 (Teva Pharmaceuticals Ltd., priority 2014, published 2015).

The test system of the data set is Crohn's disease patients. The following applies: azathioprine-treated patients; Summers et al. 1979.

Consider `Cn1cnc([N+](=O)[O-])c1Sc1ncnc2nc[nH]c12` [azathioprine], for which the “time of maximum decrease in the mean CDAI score” value is 9 weeks.
